What all share (test): NCI anticancer screen, dose series, 48 h
Assay [1] concerns UACC-62 melanoma.
Assay [2] deals with BT-549 breast.
In assay [3] the test system is SK-OV-3 ovarian.
Assay [4] deals with TK-10 renal.
Assay [5] concerns HL-60(TB) leukemia.
Assay [6] concerns OVCAR-3 ovarian.
Assay [7] concerns MDA-MB-435.
Assay [8] deals with KM12 colon.
The subject of assay [9] is U251 CNS.
Assay [10] deals with HCC-2998 colon.

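Cells were grown in 96-well plates and exposed to each compound for 48 hours at five concentrations; endpoints were interpolated linearly between bracketing concentrations, or set to the highest concentration if not reached. GI50 = concentration required for 50% inhibition of growth. At the TGI there is no net growth.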

Turning to `NCCN1C(=O)c2ccccc2C1(O)c1ccc(Cl)cc1` (configuration not stated), the TGI in assay [1] is 30.7 µM; in assay [2], over 100 µM; in [3] it was 81.1 µM; in [4] it was 36.1 µM; in assay [5], 70.8 µM; in assay [6] it was over 100 µM. Moreover, the values for the TGI in assay [7], in assay [8] and in assay [9] were 28.6 µM, 30.5 µM and 29.6 µM, respectively.

Take `Cc1ccc(C)c2c(N=Nc3ccccc3[N+](=O)[O-])c(O)[nH]c12`: the TGI in assay [1], in [2], in assay [3], in assay [4], in [10] and in assay [5] was over 100 µM in each case. In addition, the TGI in [6], in [7], in assay [8] and in [9] was over 100 µM throughout.

In the case of `Cc1ccc(C(=O)N=Nc2c(O)[nH]c3ccc(Cl)cc23)cc1`, the GI50 is 9.3 µM in assay [1]; 25 µM in assay [2]; 43.2 µM in [4]; 38.7 µM in assay [5]; 21.3 µM in [6]; 13 µM in assay [7]. Further, the GI50 was over 50 µM in assay [8] and 21.5 µM in [9]. In addition, the TGI in assay [1] was 23.1 µM; in assay [2] it was over 50 µM; in assay [4] it was over 50 µM; in assay [5] it was over 50 µM; in assay [6], over 50 µM; in assay [7], 40.6 µM. Also, the TGI in [8] and in assay [9] was over 50 µM in each case.

On to `Cc1cc2c(=O)[nH]c(N)nc2nc1C`, for which the TGI in [1], in assay [2], in [3], in [4], in assay [5] and in assay [6] was over 100 µM each time. The TGI in assay [7], in [8] and in [9] was over 100 µM throughout.

For the molecule `Cc1cc2c(cc1C)[n+](Cc1ccc3ccccc3n1)cn2Cc1ccc2ccccc2n1`, the GI50 was 0.612 µM in assay [1]; 1.32 µM in assay [2]; 1.69 µM in assay [3]; 1.38 µM in assay [4]; 1.27 µM in assay [10]; 0.628 µM in assay [6]. Besides, the GI50 is 0.571 µM in assay [7], 0.568 µM in [8] and 0.926 µM in [9]. The TGI in assay [1] stood at 2.1 µM; in assay [2] it was 3.2 µM; in [3] it was 4.13 µM; in assay [4], 2.74 µM; in assay [10], 2.73 µM; in [6] it was 2.12 µM. Moreover, the TGI in assay [7] amounted to 2.05 µM; in assay [8], 2.06 µM; in assay [9], 2.2 µM.

`COc1ccc(C#CC2=C(c3cc(OC)c(OC)c(OC)c3)C(=O)OC2)cc1`: the GI50 was 5.23 µM in [1]; 2.13 µM in [2]; 1.77 µM in assay [4]; 4.48 µM in assay [5]; 1.59 µM in assay [6]; 1.49 µM in assay [7]. In addition, the GI50 in assay [8] is 1.63 µM; in [9], 1.64 µM. In addition, the TGI in assay [1] is 18.4 µM; in assay [2] it was 15.7 µM; in [4], over 50 µM; in assay [5] it was over 50 µM; in assay [6], 10.3 µM; in assay [7], 7.82 µM. Further, the values for the TGI in [8] and in assay [9] were 27.4 µM and 6.74 µM, respectively.

As to `O=S(=O)(NCCO)c1cc[c]([Sb](=[O])([OH])[OH])cc1`, the GI50 in assay [1], in assay [2], in [4], in assay [10], in assay [5] and in assay [6] was over 100 µM in each case. Also, the GI50 in assay [7], in assay [8] and in [9] was over 100 µM throughout. Moreover, the TGI in assay [1], in assay [2], in assay [4], in assay [10], in assay [5] and in assay [6] was over 100 µM each time. The TGI in [7], in [8] and in [9] was over 100 µM in each case.

Take `N#C/C(=C\c1cccc2cnccc12)N1N=NC2C=CC=CC21` (configuration not stated): the GI50 in assay [2] was 2.97 µM; in [3], 2.08 µM; in [4] it was 3.98 µM; in [10] it was 4.32 µM; in assay [5] it was 3 µM; in [6], 1.91 µM. The GI50 in [7] was 2.87 µM; in assay [8], 2.96 µM; in assay [9], 3.88 µM. In addition, the TGI in [2] was over 100 µM; in assay [3], 25.9 µM; in [4], 26.3 µM; in [10], over 100 µM; in assay [5], 24.3 µM; in assay [6], 4.88 µM. The TGI in assay [7] was over 100 µM; in assay [8], 32 µM; in assay [9] it was over 100 µM.

Take `C#CC(=O)OCC#CCOC(=O)C#C`: the TGI is 56.7 µM in [1]; 36.6 µM in [2]; over 100 µM in [3]; 37.9 µM in [4]; 39.6 µM in assay [10]; 34.7 µM in assay [6]. Also, the values for the TGI in [7], in assay [8] and in assay [9] were over 100 µM, 44 µM and 35.6 µM, respectively.

Take `COc1cc2c(cc1O)C(c1cc(O)c(O)c(OC)c1)C(O)(C(=O)O)C(CO)C2O` (configuration not stated): the TGI in assay [1], in assay [2], in assay [3], in assay [4], in assay [10] and in [6] was over 100 µM in each case. Also, the TGI was 37 µM in assay [7], over 100 µM in assay [8] and over 100 µM in assay [9].

As to `Cc1cn2c(/C=N/N=C(N)N)c(-c3ccsc3)nc2s1`, the GI50 is 11.3 µM in assay [1]; 15 µM in assay [2]; 10.6 µM in assay [3]; 13.4 µM in [4]; 2.34 µM in [10]; 4.02 µM in assay [6]. Also, the GI50 in assay [7] is 11.1 µM; in [8], 6.6 µM; in assay [9] it was 2.08 µM. The TGI is 23.4 µM in [1]; 29.5 µM in assay [2]; 25.6 µM in assay [3]; 27.5 µM in assay [4]; 5.33 µM in assay [10]; 13.4 µM in assay [6]. In addition, the TGI in [7] is 24.6 µM; in [8], 29.9 µM; in assay [9] it was 5.95 µM.

Turning to `O=c1cc(O)c2c(O)cc(O)cc2o1`, the TGI in [1], in assay [2], in [4], in [10], in [5] and in assay [6] was over 100 µM in each case. The TGI in assay [7] and in assay [9] was over 100 µM in each case.

As to `Cn1c(C(C)(C)OC(=O)Oc2ccccc2)cnc1[N+](=O)[O-]`, the TGI in assay [1], in assay [2], in [3], in assay [4], in assay [5] and in assay [6] was over 100 µM throughout. The TGI in assay [7], in assay [8] and in assay [9] was over 100 µM in each case.

With `C[n+]1c(/C=C/c2ccc(/C=N/NC(=O)c3ccc(C(=O)N/N=C/c4ccc(/C=C/c5cn6ccccc6[n+]5C)cc4)cc3)cc2)cn2ccccc21`, the TGI in assay [2] is over 100 µM; in [3] it was over 100 µM; in [4] it was over 100 µM; in assay [10] it was over 100 µM; in [5] it was 67.4 µM; in assay [6], over 100 µM. Besides, the TGI in [7], in assay [8] and in assay [9] was over 100 µM throughout.

Consider `CCN1C(=O)N(CC)C2C1NN=c1s/c(=C\c3cccc([N+](=O)[O-])c3)c(=O)n12` (configuration not stated), for which the GI50 in assay [1] is 0.0539 µM; in assay [2], 0.291 µM; in assay [4], over 100 µM; in [10], 0.229 µM; in assay [5], 0.0496 µM; in [6], 0.0575 µM. In addition, the GI50 in assay [7] was 0.0214 µM; in assay [8], 0.0404 µM; in assay [9], 0.0542 µM. Also, the TGI is over 100 µM in assay [1]; 33.5 µM in [2]; over 100 µM in assay [4]; over 100 µM in assay [10]; 0.21 µM in [5]; 0.399 µM in [6]. In addition, the TGI in assay [7] is 0.0504 µM; in [8], over 100 µM; in [9] it was over 100 µM.

Regarding `Oc1ccccc1C=Nc1ccccc1N=Cc1ccccc1O.[Cu+2]`, the GI50 in assay [1] was 3.13 µM; in assay [2], 3.24 µM; in [3], 5.23 µM; in assay [4], 10.5 µM; in assay [10], 7.95 µM; in [6], 3.35 µM. Also, the GI50 in assay [7] was 4.38 µM; in [8], 3.5 µM; in assay [9], 3.4 µM. Moreover, the TGI is 14.2 µM in assay [1]; 11.9 µM in assay [2]; 18.3 µM in assay [3]; 23.8 µM in assay [4]; 20.9 µM in assay [10]; 14.4 µM in assay [6]. For the same molecule, the TGI worked out at 17 µM in [7], 15 µM in assay [8] and 14 µM in assay [9].

The values are drawn from PubChem BioAssay (NCI).
